21 compounds from US11919901B2 (Syndax Pharmaceuticals, Inc., priority 2021, dated 2024) can be followed below.

SMILES strings stand for the structures.

For the test, the system named is MV4-11 cells. Kind of test: Cell proliferation assay MV4;11 (CellTiter-Glo, 72 hours). It counts as cell-based. To be noted: Homo sapiens; MV4;11 leukemia cell line, 72 hours; read-out: MV4; 11 IC50. An outline of the steps:
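Luminescent CellTiter-Glo readout after 72 h culture, 37 °C, 5% CO2, expressed relative to vehicle-treated wells, with maximal inhibition taken at the highest dose. MLL-rearranged MV4-11 leukemia cells; final compound range 0.632 to 2000 nM in eight steps.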
A general note: Cellular ATP, detected with luciferase, serves as a proxy for viable cell number.

`CCN(C(=O)c1cc(F)ccc1Oc1cncnc1N1CC2(CCN(C[C@@H]3CC[C@@H](NS(=O)(=O)N4CCC4)CO3)CC2)C1)C(C)C` [Example 69, 2-((4-(7-(((2S,5R)-5-(Azetidine-1-sulfonamido)tetrahydro-2H-pyran-2-yl)methyl)-2,7-diazaspiro[3.5]nonan-2-yl)pyrimidin-5-yl)oxy)-N-ethyl-5-fluoro-N-isopropylbenzamide]: the IC50 is under 100 nM. On to `CCN(C(=O)c1cc(F)ccc1Oc1cncnc1N1CC2(CCN(C[C@@H]3CC[C@@H](NS(N)(=O)=O)CO3)CC2)C1)C(C)C` [Example 73, N-Ethyl-5-fluoro-N-isopropyl-2-((4-(7-(((2S,5R)-5-(sulfamoylamino)tetrahydro-2H-pyran-2-yl)methyl)-2,7-diazaspiro[3.5]nonan-2-yl)pyrimidin-5-yl)oxy)benzamide], for which the IC50 fell in the range of 100 to 1000 nM.

With `CCN(C(=O)c1cc(F)ccc1Oc1cncnc1N1CC2(CCN(C[C@@H]3CC[C@@H](NS(=O)(=O)NC)CO3)CC2)C1)C(C)C` [Example 76, N-Ethyl-5-fluoro-N-isopropyl-2-((4-(7-(((2S,5R)-5-((N-methylsulfamoyl)amino)tetrahydro-2H-pyran-2-yl)methyl)-2,7-diazaspiro[3.5]nonan-2-yl)pyrimidin-5-yl)oxy)benzamide], the IC50 was under 100 nM. On to `CC(C)N(C(=O)c1cc(F)ccc1Oc1cncnc1N1CC2(CCN(C[C@@H]3CC[C@@H](NS(=O)(=O)N(C)C)CO3)CC2)C1)C(C)C` [Example 77, 2-((4-(7-(((2S,5R)-5-((N,N-Dimethylsulfamoyl)amino)tetrahydro-2H-pyran-2-yl)methyl)-2,7-diazaspiro[3.5]nonan-2-yl)pyrimidin-5-yl)oxy)-5-fluoro-N,N-diisopropylbenzamide], for which the IC50 was under 100 nM. Under `CC(C)N(C(=O)c1cc(F)ccc1Oc1cncnc1N1CC2(CCN(C[C@@H]3CC[C@@H](NS(=O)(=O)N4CCOCC4)CO3)CC2)C1)C(C)C` [Example 78, 5-Fluoro-N,N-diisopropyl-2-((4-(7-(((2S,5R)-5-(morpholine-4-sulfonamido)tetrahydro-2H-pyran-2-yl)methyl)-2,7-diazaspiro[3.5]nonan-2-yl)pyrimidin-5-yl)oxy)benzamide] stands under 100 nM; under `CC(C)N(C(=O)c1cc(F)ccc1Oc1cncnc1N1CC2(CCN(C[C@@H]3CC[C@@H](NS(=O)(=O)N4CCC4)CO3)CC2)C1)C(C)C` [Example 88, 2-((4-(7-(((2S,5R)-5-(Azetidine-1-sulfonamido)tetrahydro-2H-pyran-2-yl)methyl)-2,7-diazaspiro[3.5]nonan-2-yl)pyrimidin-5-yl)oxy)-5-fluoro-N,N-diisopropylbenzamide], under 100 nM. To `CC(C)N(C(=O)c1cc(F)ccc1Oc1cncnc1N1CC2(CCN(C[C@@H]3CC[C@@H](NS(=O)(=O)N(C)C(C)C)CO3)CC2)C1)C(C)C` [Example 89, 5-Fluoro-N,N-diisopropyl-2-((4-(7-(((2S,5R)-5-((N-isopropyl-N-methylsulfamoyl)amino)tetrahydro-2H-pyran-2-yl)methyl)-2,7-diazaspiro[3.5]nonan-2-yl)pyrimidin-5-yl)oxy)benzamide] belongs under 100 nM; to `CC(C)N(C(=O)c1cc(F)ccc1Oc1cncnc1N1CC2(CCN(C[C@@H]3CC[C@@H](NS(N)(=O)=O)CO3)CC2)C1)C(C)C` [Example 90, 5-Fluoro-N,N-diisopropyl-2-((4-(7-(((2S,5R)-5-(sulfamoylamino)tetrahydro-2H-pyran-2-yl)methyl)-2,7-diazaspiro[3.5]nonan-2-yl)pyrimidin-5-yl)oxy)benzamide], under 100 nM. Under `CC(C)N(C(=O)c1cc(F)ccc1Oc1cncnc1N1CC2(CCN(C[C@@H]3CC[C@@H](NS(=O)(=O)N(C)C)CO3)CC2)C1)C1CC1` [Example 93, N-Cyclopropyl-2-((4-(7-(((2S,5R)-5-((N,N-dimethylsulfamoyl)amino)tetrahydro-2H-pyran-2-yl)methyl)-2,7-diazaspiro[3.5]nonan-2-yl)pyrimidin-5-yl)oxy)-5-fluoro-N-isopropylbenzamide] stands under 100 nM; under `CC(C)N(CC(F)F)C(=O)c1cc(F)ccc1Oc1cncnc1N1CC2(CCN(C[C@@H]3CC[C@@H](NS(=O)(=O)N4CCOCC4)CO3)CC2)C1` [Example 94, N-(2,2-Difluoroethyl)-5-fluoro-N-isopropyl-2-((4-(7-(((2S,5R)-5-(morpholine-4-sulfonamido)tetrahydro-2H-pyran-2-yl)methyl)-2,7-diazaspiro[3.5]nonan-2-yl)pyrimidin-5-yl)oxy)benzamide], under 100 nM.

On to `CC(C)N(CC(F)F)C(=O)c1cc(F)ccc1Oc1cncnc1N1CC2(CCN(C[C@@H]3CC[C@@H](NS(=O)(=O)N(C)C)CO3)CC2)C1` [Example 95, N-(2,2-Difluoroethyl)-2-((4-(7-(((2S,5R)-5-((N,N-dimethylsulfamoyl)amino)tetrahydro-2H-pyran-2-yl)methyl)-2,7-diazaspiro[3.5]nonan-2-yl)pyrimidin-5-yl)oxy)-5-fluoro-N-isopropylbenzamide], for which the IC50 was under 100 nM. To `CC(C)N(CC(F)F)C(=O)c1cc(F)ccc1Oc1cncnc1N1CC2(CCN(C[C@@H]3CC[C@@H](NS(C)(=O)=O)CO3)CC2)C1` [Example 96, N-(2,2-Difluoroethyl)-5-fluoro-N-isopropyl-2-((4-(7-(((2S,5R)-5-(methylsulfonamido)tetrahydro-2H-pyran-2-yl)methyl)-2,7-diazaspiro[3.5]nonan-2-yl)pyrimidin-5-yl)oxy)benzamide] belongs under 100 nM. To `CCN(CC)S(=O)(=O)N[C@@H]1CC[C@@H](CN2CCC3(CC2)CN(c2ncncc2Oc2ccc(F)cc2C(=O)N(CC(F)F)C(C)C)C3)OC1` [Example 97, 2-((4-(7-(((2S,5R)-5-((N,N-Diethylsulfamoyl)amino)tetrahydro-2H-pyran-2-yl)methyl)-2,7-diazaspiro[3.5]nonan-2-yl)pyrimidin-5-yl)oxy)-N-(2,2-difluoroethyl)-5-fluoro-N-isopropylbenzamide] belongs under 100 nM; to `CC(C)N(CC(F)F)C(=O)c1cc(F)ccc1Oc1cncnc1N1CC2(CCN(C[C@@H]3CC[C@@H](NS(=O)(=O)N4CCC4)CO3)CC2)C1` [Example 99, 2-((4-(7-(((2S,5R)-5-(Azetidine-1-sulfonamido)tetrahydro-2H-pyran-2-yl)methyl)-2,7-diazaspiro[3.5]nonan-2-yl)pyrimidin-5-yl)oxy)-N-(2,2-difluoroethyl)-5-fluoro-N-isopropylbenzamide], under 100 nM; to `CC(C)N(CC(F)F)C(=O)c1cc(F)ccc1Oc1cncnc1N1CC2(CCN(C[C@@H]3CC[C@@H](NS(=O)(=O)N(C)C(C)C)CO3)CC2)C1` [Example 101, N-(2,2-Difluoroethyl)-5-fluoro-N-isopropyl-2-((4-(7-(((2S,5R)-5-((N-isopropyl-N-methylsulfamoyl)amino)tetrahydro-2H-pyran-2-yl)methyl)-2,7-diazaspiro[3.5]nonan-2-yl)pyrimidin-5-yl)oxy)benzamide], under 100 nM. To `CNS(=O)(=O)N[C@@H]1CC[C@@H](CN2CCC3(CC2)CN(c2ncncc2Oc2ccc(F)cc2C(=O)N(CC(F)F)C(C)C)C3)OC1` [Example 102, N-(2,2-Difluoroethyl)-5-fluoro-N-isopropyl-2-((4-(7-(((2S,5R)-5-((N-methylsulfamoyl)amino)tetrahydro-2H-pyran-2-yl)methyl)-2,7-diazaspiro[3.5]nonan-2-yl)pyrimidin-5-yl)oxy)benzamide] belongs under 100 nM; to `CC(C)N(CC(F)(F)F)C(=O)c1cc(F)ccc1Oc1cncnc1N1CC2(CCN(C[C@@H]3CC[C@@H](NS(=O)(=O)N(C)C)CO3)CC2)C1` [Example 107, 2-((4-(7-(((2S,5R)-5-((N,N-Dimethylsulfamoyl)amino)tetrahydro-2H-pyran-2-yl)methyl)-2,7-diazaspiro[3.5]nonan-2-yl)pyrimidin-5-yl)oxy)-5-fluoro-N-isopropyl-N-(2,2,2-trifluoroethyl)benzamide], under 100 nM. Regarding `CC(C)N(CC(F)(F)F)C(=O)c1cc(F)ccc1Oc1cncnc1N1CC2(CCN(C[C@@H]3CC[C@@H](NS(=O)(=O)N4CCOCC4)CO3)CC2)C1` [Example 108, 5-Fluoro-N-isopropyl-2-((4-(7-(((2S,5R)-5-(morpholine-4-sulfonamido)tetrahydro-2H-pyran-2-yl)methyl)-2,7-diazaspiro[3.5]nonan-2-yl)pyrimidin-5-yl)oxy)-N-(2,2,2-trifluoroethyl)benzamide], the IC50 is under 100 nM. Take `CC(C)N(CC(F)(F)F)C(=O)c1cc(F)ccc1Oc1cncnc1N1CC2(CCN(C[C@@H]3CC[C@@H](NS(=O)(=O)C(C)C)CO3)CC2)C1` [Example 109, 5-Fluoro-N-isopropyl-2-((4-(7-(((2S,5R)-5-((1-methylethyl)sulfonamido)tetrahydro-2H-pyran-2-yl)methyl)-2,7-diazaspiro[3.5]nonan-2-yl)pyrimidin-5-yl)oxy)-N-(2,2,2-trifluoroethyl)benzamide]: the IC50 was under 100 nM. As for `CC(C)N(C(=O)c1cc(F)ccc1Oc1cncnc1N1CC2(CCN(C[C@@H]3CC[C@@H](NS(=O)(=O)C(C)C)CO3)CC2)C1)C1CC(F)(F)C1` [Example 110, N-(3,3-Difluorocyclobutyl)-5-fluoro-N-isopropyl-2-((4-(7-(((2S,5R)-5-((1-methylethyl)sulfonamido)tetrahydro-2H-pyran-2-yl)methyl)-2,7-diazaspiro[3.5]nonan-2-yl)pyrimidin-5-yl)oxy)benzamide], the IC50 was under 100 nM. To `CC(C)N(C(=O)c1cc(F)ccc1Oc1cncnc1N1CC2(CCN(C[C@@H]3CC[C@@H](NS(=O)(=O)C4CC4)CO3)CC2)C1)C1CC(F)(F)C1` [Example 111, 2-((4-(7-(((2S,5R)-5-(Cyclopropanesulfonamido)tetrahydro-2H-pyran-2-yl)methyl)-2,7-diazaspiro[3.5]nonan-2-yl)pyrimidin-5-yl)oxy)-N-(3,3-difluorocyclobutyl)-5-fluoro-N-isopropylbenzamide] belongs under 100 nM.
